This is an account of results in patent EP0061654A1, “Vincamine cyclamate, process for its preparation and medicaments containing it” (Heinrich Mack Nachf., priority 1981, dated 1982).

The conditions of data set [1]: in Wasser und anderen pharmazeutisch annehmbaren Lösungsmitteln; cited from earlier work.
Data set [2] can be described thus: Solubility in pharmaceutically acceptable solvents. Format: physicochemical. The note with it: in Wasser, Glycerin/Ethanol-Gemischen oder Ethanol/Wasser-Gemischen.

Where two headings read alike, the source gives them in different places.

Consider `CCC12CCCN3CCc4c(n(c5ccccc45)C(O)(C(=O)OC)C1)C32` (centres unmarked) [Vincamin-Base, Vincamin], for which the Löslichkeit result in data set [1] is reported as “praktisch unlöslich”.
Regarding Vincamin-cyclamat, the Löslichkeit entry in data set [2] is “ausreichend löslich”.
